Here are results for three molecules from ChEMBL document CHEMBL4270607, “Identification of crizotinib derivatives as potent SHIP2 inhibitors for the treatment of Alzheimer's disease” (Eur J Med Chem, 2018).

Activity calls are given as the source filed them. No cut-off for these calls is given here.

For series [1], the system named is HT-22. Kind of series: Cytotoxicity against mouse HT22 cells assessed as decrease in cell viability at 10 uM after 24 hrs by MTT assay. The series is classed as cell-based. The following applies: ht-22, 24 h.
Series [2] concerns the target T1, Phosphatidylinositol 3,4,5-trisphosphate 5-phosphatase 2 (Homo sapiens) (UniProt O15357).
T1 sequence (whole entry): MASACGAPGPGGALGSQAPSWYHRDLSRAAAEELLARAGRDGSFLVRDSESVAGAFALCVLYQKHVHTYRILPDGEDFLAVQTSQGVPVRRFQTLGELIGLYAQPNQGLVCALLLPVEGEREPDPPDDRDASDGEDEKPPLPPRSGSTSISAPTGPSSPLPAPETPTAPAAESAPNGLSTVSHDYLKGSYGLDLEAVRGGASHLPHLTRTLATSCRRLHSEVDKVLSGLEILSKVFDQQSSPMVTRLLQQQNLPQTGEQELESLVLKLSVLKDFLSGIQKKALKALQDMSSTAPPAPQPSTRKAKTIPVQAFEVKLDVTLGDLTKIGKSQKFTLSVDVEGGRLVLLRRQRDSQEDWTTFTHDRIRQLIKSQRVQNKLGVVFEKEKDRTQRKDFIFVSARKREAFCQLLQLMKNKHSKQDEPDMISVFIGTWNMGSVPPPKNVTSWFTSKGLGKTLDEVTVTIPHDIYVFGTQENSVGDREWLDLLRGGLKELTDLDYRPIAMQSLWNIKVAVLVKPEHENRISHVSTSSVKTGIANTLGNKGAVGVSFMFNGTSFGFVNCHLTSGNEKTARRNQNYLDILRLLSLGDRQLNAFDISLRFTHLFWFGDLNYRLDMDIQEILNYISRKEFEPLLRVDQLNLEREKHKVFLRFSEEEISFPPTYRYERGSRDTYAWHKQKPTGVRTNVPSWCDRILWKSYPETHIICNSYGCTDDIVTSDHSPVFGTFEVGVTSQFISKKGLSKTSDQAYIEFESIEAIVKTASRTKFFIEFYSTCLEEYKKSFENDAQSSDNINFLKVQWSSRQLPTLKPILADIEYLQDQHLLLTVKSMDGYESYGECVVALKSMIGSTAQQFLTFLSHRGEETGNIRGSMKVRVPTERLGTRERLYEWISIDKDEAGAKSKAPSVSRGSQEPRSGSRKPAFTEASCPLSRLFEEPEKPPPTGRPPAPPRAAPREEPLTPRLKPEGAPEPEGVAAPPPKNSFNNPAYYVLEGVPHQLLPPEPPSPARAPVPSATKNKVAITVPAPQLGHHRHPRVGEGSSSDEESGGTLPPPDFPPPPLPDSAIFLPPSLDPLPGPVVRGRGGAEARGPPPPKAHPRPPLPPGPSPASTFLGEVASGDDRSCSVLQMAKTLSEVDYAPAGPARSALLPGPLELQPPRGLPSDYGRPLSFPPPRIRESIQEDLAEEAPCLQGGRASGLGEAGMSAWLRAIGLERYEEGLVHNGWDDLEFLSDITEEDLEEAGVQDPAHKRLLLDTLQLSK
Briefly: Inhibition of SHIP2 (unknown origin) assessed as remaining enzyme activity at 30 uM using PtdIns(3,4,5)P3 as substrate preincubated for 20 mins followed by substrate addition measured for 50 mins by malachite green staining based assay relative to control.

A short description of series [3]: Metabolic stability in rat liver microsomes assessed as parent compound remaining at 1 uM preincubated for 5 mins followed by NADPH addition measured after 30 mins by LC-MS/MS analysis. Conditions: read-out: Stability. The series is classed as ADME, microsome.
Series [4] has as its target T2, Phosphatidylinositol 3,4,5-trisphosphate 5-phosphatase 2 (Mus musculus) (UniProt Q6P549).
T2 sequence (whole entry): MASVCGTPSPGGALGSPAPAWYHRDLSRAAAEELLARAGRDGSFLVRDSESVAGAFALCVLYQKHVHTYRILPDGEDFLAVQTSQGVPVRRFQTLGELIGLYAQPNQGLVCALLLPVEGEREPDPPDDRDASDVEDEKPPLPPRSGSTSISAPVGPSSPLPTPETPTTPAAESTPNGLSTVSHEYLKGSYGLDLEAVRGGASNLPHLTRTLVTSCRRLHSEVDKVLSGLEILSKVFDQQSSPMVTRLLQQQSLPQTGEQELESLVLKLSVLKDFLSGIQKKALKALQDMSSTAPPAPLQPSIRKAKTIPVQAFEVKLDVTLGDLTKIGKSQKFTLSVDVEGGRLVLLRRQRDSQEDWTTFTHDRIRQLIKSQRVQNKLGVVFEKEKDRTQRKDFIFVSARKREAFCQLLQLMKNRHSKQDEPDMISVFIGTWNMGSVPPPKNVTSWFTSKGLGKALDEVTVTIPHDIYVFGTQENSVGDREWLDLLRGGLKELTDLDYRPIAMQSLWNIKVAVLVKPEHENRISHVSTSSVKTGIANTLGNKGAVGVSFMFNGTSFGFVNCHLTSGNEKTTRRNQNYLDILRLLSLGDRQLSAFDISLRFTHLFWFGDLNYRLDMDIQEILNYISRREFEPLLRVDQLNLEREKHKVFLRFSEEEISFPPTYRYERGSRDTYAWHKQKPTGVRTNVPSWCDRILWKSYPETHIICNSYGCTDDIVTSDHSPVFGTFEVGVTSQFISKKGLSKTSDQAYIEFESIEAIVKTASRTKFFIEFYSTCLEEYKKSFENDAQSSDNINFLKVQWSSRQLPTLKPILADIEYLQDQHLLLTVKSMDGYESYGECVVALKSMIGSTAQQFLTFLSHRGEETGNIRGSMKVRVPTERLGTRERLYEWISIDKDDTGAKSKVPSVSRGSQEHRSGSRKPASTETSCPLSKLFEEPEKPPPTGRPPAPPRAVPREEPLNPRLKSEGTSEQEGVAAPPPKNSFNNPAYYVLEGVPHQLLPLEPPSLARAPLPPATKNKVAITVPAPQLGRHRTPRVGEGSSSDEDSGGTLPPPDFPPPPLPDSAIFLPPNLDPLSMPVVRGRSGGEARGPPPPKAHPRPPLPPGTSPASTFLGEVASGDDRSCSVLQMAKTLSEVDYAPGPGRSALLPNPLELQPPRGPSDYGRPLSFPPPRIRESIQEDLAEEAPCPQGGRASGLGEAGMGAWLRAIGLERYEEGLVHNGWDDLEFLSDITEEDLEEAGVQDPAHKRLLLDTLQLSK
Kind of series: Inhibition of SHIP2 in mouse HT22 cells assessed as decrease in PI(3,4)P2 production at 10 uM after 24 hrs by mKate2-TAPP1-PH based fluorescence imaging method. Format: cell-based.

The nature of series [5]: Metabolic stability in dog liver microsomes assessed as parent compound remaining at 1 uM preincubated for 5 mins followed by NADPH addition measured after 30 mins by LC-MS/MS analysis. The series is classed as ADME, Canis lupus familiaris, microsome. Conditions: read-out: Stability.
The target of series [6] is CYP2D6 (Homo sapiens, UniProt P10635). Kind of series: Inhibition of recombinant human CYP2D6 assessed as remaining enzyme activity at 10 uM preincubated for 5 mins followed by NADPH addition measured after 20 mins by fluorescence assay relative to control. Format: ADME. Conditions: read-out: Activity.
The target of series [7] is CYP2C9 (Homo sapiens, UniProt P11712). Kind of series: Inhibition of recombinant human CYP2C9 assessed as remaining enzyme activity at 10 uM preincubated for 5 mins followed by NADPH addition measured after 20 mins by fluorescence assay relative to control. Format: ADME. The following applies: read-out: Activity.
CYP2C9, sequence (P11712 whole entry): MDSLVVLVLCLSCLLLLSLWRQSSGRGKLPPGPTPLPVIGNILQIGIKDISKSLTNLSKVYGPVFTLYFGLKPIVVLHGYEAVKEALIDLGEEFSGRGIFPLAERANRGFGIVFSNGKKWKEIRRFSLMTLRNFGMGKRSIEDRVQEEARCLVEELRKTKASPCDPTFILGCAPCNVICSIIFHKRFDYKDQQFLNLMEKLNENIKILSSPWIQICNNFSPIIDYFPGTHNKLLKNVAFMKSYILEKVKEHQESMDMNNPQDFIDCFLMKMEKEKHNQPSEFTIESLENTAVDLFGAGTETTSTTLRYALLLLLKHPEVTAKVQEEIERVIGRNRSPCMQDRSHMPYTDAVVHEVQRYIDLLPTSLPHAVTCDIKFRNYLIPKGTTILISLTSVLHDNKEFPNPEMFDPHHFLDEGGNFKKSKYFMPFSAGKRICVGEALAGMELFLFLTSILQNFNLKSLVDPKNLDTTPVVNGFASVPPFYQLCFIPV

CYP2D6, sequence (P10635 whole entry): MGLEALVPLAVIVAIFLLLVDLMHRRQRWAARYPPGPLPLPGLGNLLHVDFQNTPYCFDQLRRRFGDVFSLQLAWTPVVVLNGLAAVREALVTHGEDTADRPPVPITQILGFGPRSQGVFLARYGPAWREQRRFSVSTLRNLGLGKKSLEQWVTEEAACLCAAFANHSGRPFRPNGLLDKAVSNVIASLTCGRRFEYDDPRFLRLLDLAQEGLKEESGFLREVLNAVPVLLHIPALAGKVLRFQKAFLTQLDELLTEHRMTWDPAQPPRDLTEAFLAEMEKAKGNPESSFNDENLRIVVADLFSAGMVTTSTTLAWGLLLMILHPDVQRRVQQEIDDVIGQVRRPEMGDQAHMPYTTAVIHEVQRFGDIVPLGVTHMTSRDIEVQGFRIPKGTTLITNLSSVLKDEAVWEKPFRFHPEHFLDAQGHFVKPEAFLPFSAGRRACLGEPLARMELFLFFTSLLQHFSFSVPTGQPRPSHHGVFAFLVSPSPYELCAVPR

As for `N#Cc1ccc(-c2cncc(OCc3ccc(Cl)cc3Cl)c2)s1`, the Activity result in series [1] is “Non-Toxic”; in series [2] it was 19.9%. Moreover, the remaining at 0.5 h, 1 µM in series [3] was 64.3%; in series [5], 24.3%. Besides, the inhibition result in series [4] was “Active”. Also, the activity at 20 min, 10 µM in series [6] was 93.1%; in series [7], 97.2%.

Regarding `O=C(NCc1c(F)cccc1F)c1sccc1OCc1ccc(Cl)cc1Cl`, the Activity entry in series [1] is “Toxic”; in series [2], 17.1%. In addition, the remaining at 0.5 h, 1 µM in series [3] was 28.3%; in series [5], 5.7%. In addition, in series [4], the inhibition entry is “Active”. Moreover, the activity at 20 min, 10 µM in series [6] is 82.7%; in series [7] it was 10.9%.

In the case of `C[C@@H](Oc1cncc(-c2cnc(N)nc2)c1)c1c(Cl)ccc(F)c1Cl`, the Activity result in series [1] was “Non-Toxic”; in series [2], 20.2%. Moreover, the values for the remaining at 0.5 h, 1 µM in series [3] and in series [5] were 56.4% and 23.1%, respectively. Also, the inhibition result in series [4] is “Active”. Moreover, the activity at 20 min, 10 µM in series [6] came out at 94.4%; in series [7] it was 66.7%.
